The source of these data is the OligoGym collection.

The target of this data set is SNHG14. The following applies: ASO.

After the bases stand the sugars from the 5' end (letter, count) and the backbone: PS all phosphorothioate, else s phosphorothioate and o phosphodiester by linkage. Methylation of C is not given here. l = locked nucleic acid (LNA); d = 2'-deoxy (DNA)

Turning to “AATTTTTTTCTTACTATCTT (sugars l1 d12 l1 d2 l4, PS)”, the target mRNA inhibition (Human Neuronal Cell, 7.5 µM) was 62%.

With “TTACACTTAATTATACTTCC (sugars l3 d1 l1 d12 l3, PS)”, under “Human Neuronal Cell, 7.5 µM”, the target mRNA inhibition was 70%.

Consider TTTCCATCTACTATTA (sugars l4 d10 l2, PS), for which the target mRNA inhibition reads like this: (Human Neuronal Cell, 0.2 µM) 60%; (Human Neuronal Cell, 1 µM) 67%.

On to “CCATTTATTTCCATTTATTT (sugars ldldddddddddddllddll, PS)”, for which, for the setting “Human Neuronal Cell, 7.5 µM”, the target mRNA inhibition worked out at 52%.

As for “TTCTGTATACACCATCC (sugars l1 d10 l1 d3 l2, PS)”, where the note is “Human Neuronal Cell, 7.5 µM”, the target mRNA inhibition came out at 51%.

In the case of “TTCTGTATACACCATCCC (sugars l1 d12 l1 d2 l2, PS)”, for the setting “Human Neuronal Cell, 7.5 µM”, the target mRNA inhibition is 53%.

For “TGAAAATCTCAACTACCAT (sugars l4 d12 l3, PS)”, for the setting “Human Neuronal Cell, 7.5 µM”, the target mRNA inhibition was found to be 49%.

Take “TCCTATATTCTCTTAAA (sugars l4 d11 l2, PS)”: the target mRNA inhibition worked out at 47% (Human Neuronal Cell, 0.2 µM) and 66% (Human Neuronal Cell, 1 µM).

Take GTTACCTACATCTCAT (sugars l3 d10 l3, PS): the target mRNA inhibition was found to be 3% (Human Neuronal Cell, 0.2 µM); 32% (Human Neuronal Cell, 1 µM); 18% (Human Neuronal Cell, 5 µM); 93.4% (Mouse Primary Neuronal Cell, 0.005 µM).

In the case of ATCATTCTCAACAATTA (sugars l4 d7 l6, PS), for the setting “Human Neuronal Cell, 7.5 µM”, the target mRNA inhibition stood at 17%.

As to “TTTTTATACCTTTCTTTAAC (sugars lllldddddddddldlddll, PS)”, the target mRNA inhibition (Human Neuronal Cell, 7.5 µM) is 69%.

For “TTGTCTCTAATCCTATT (sugars l2 d11 l4, PS)”, the target mRNA inhibition amounted to 24% (Human Neuronal Cell, 0.2 µM) and 52% (Human Neuronal Cell, 1 µM).

With GCTTCATATTTCTCCA (sugars l2 d12 l2, PS), the target mRNA inhibition (Human Neuronal Cell, 0.2 µM) worked out at 57%.

On to “TTTTTATACCTTTCTTTAAC (sugars l1 d12 l1 d2 l4, PS)”, for which the target mRNA inhibition (Human Neuronal Cell, 7.5 µM) was 43%.

Turning to “TCAGCTTTTAACCAGAGTGG (sugars l2 d16 l2, PS)”, the target mRNA inhibition (Human Neuronal Cell, 7.5 µM) was found to be 70%.

Turning to TTCTTAGTCACACACA (sugars l4 d10 l2, PS), the target mRNA inhibition by setting is: (Human Neuronal Cell, 0.2 µM) -3%; (Human Neuronal Cell, 1 µM) -43%.

As to “AAAATCTCAACTACCATTT (sugars l6 d9 l4, PS)”, the target mRNA inhibition (Human Neuronal Cell, 7.5 µM) was 23%.

Turning to “AAATCTCAACTACCATTTTT (sugars llldldddddddddlldlll, PS)”, the target mRNA inhibition (Human Neuronal Cell, 7.5 µM) is -2%.

As to “TTCACCTAATAGCACCA (sugars l2 d11 l4, PS)”, the target mRNA inhibition by setting is: (Human Neuronal Cell, 0.2 µM) 54%; (Human Neuronal Cell, 1 µM) 64%.

Regarding “CCTTTAATGCTTCTAAC (sugars l2 d11 l4, PS)”, the target mRNA inhibition runs as follows: (Human Neuronal Cell, 0.2 µM) 35%; (Human Neuronal Cell, 1 µM) 53%.

As for “TTGATTCAATTCCCTTA (sugars ldllddddddddlddll, PS)”, the target mRNA inhibition (Human Neuronal Cell, 7.5 µM) is 62%.

In the case of “TTTTTTCTTACTATCTTCAA (sugars llddldldddddddldldll, PS)”, for the setting “Human Neuronal Cell, 7.5 µM”, the target mRNA inhibition amounted to 60%.

“TTATACCTTTCTTTAACCCT (sugars ldddldddddddddddldll, PS)”: the target mRNA inhibition (Human Neuronal Cell, 7.5 µM) is 57%.

As for TCATACTTGCTTTAAT (sugars l4 d10 l2, PS), the target mRNA inhibition came out at 13% (Human Neuronal Cell, 0.2 µM) and 38% (Human Neuronal Cell, 1 µM).

On to “CAACATTATTAACCACCTTA (sugars ldldldddddddddddldll, PS)”, for which, where the note is “Human Neuronal Cell, 7.5 µM”, the target mRNA inhibition turned out to be 51%.

Regarding CCTCTGCTTATAACTT (sugars l3 d10 l3, PS), the target mRNA inhibition reads like this: (Human Neuronal Cell, 0.2 µM) 47%; (Human Neuronal Cell, 1 µM) 68%.

In the case of “AGTCCTTCCTTTAACCA (sugars l2 d13 l2, PS)”, the target mRNA inhibition was determined as 21% (Human Neuronal Cell, 0.2 µM) and 41% (Human Neuronal Cell, 1 µM).

“CTTTCCATTTATTTCCATT (sugars lddddldddddddddldll, PS)”: the target mRNA inhibition (Human Neuronal Cell, 7.5 µM) came out at 59%.

As for ACATTATTAACCACCT (sugars l3 d10 l3, PS), the target mRNA inhibition reads like this: (Human Neuronal Cell, 0.2 µM) 62%; (Human Neuronal Cell, 1 µM) 64%.

As to GCTTCTACTTAAATAT (sugars l3 d10 l3, PS), the target mRNA inhibition runs as follows: (Human Neuronal Cell, 0.2 µM) 27%; (Human Neuronal Cell, 1 µM) 21%.

As for “GCACATTCTTTCTATACC (sugars l1 d12 l1 d2 l2, PS)”, the target mRNA inhibition (Human Neuronal Cell, 7.5 µM) was 47%.
